This note sets out measurements from US8362000B2, “Azetidinyl diamides as monoacylglycerol lipase inhibitors” (Janssen Pharmaceutica NV, priority 2009, dated 2013).

Some results are limits rather than exact numbers.

One assay concerns the target T1, MGL (Rattus norvegicus, UniProt Q8R431).
T1 construct: one g rat brain was homogenized using a Polytron homogenizer; from tissue; host or cells: rat brain homogenate
T1 sequence (Q8R431 1-303): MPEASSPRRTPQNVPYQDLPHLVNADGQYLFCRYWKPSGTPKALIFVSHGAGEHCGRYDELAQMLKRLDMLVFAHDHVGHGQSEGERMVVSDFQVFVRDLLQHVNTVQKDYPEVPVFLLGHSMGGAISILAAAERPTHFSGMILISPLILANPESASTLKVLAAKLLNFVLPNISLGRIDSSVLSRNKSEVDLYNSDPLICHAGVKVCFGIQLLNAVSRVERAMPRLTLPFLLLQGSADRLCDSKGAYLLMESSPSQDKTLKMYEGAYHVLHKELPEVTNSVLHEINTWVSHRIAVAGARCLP
As to the kind of experiment: 2-AG accumulation assay in rat brain homogenate. The class given is biochemical. Conditions: rat brain homogenate, 2-AG accumulation as percent of vehicle; for 2-AG accumulation, % of vehicle control at 1 µM: compound 1 μM, read-out: Rat Brain 2AG % VehCntrl (%) @ 1 μM; for 2-AG accumulation, % of vehicle control at 10 µM: compound 10 μM, read-out: Rat Brain 2AG % VehCntrl (%) @ 10 μM.

Assay [1] concerns the target T2, purified wild type MGL (wt-MGLL 6H-11-313) (Homo sapiens, UniProt Q99685).
T2 sequence (Q99685 1-303): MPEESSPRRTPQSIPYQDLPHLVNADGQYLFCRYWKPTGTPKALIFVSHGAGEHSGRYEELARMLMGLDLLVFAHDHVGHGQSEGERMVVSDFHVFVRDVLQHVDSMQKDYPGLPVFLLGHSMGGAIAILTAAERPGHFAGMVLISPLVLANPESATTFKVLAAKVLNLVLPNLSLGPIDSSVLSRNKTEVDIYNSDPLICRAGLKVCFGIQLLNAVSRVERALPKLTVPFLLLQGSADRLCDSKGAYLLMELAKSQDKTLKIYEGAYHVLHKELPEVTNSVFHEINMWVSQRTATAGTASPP

Broadly, the IC50 is the midpoint of a concentration-inhibition curve. A low value points to higher potency. Turning to `O=C(c1ccc2c(ccn2-c2ccc(F)cc2F)c1)N1CC(N2CCN(C(=O)c3ccc[nH]3)CC2)C1` [Cpd 1061, 1-(2,4-Difluorophenyl)-5-({3-[4-(1H-pyrrol-2-ylcarbonyl)piperazin-1-yl]azetidin-1-yl}carbonyl)-1H-indole], the 2-AG accumulation, % of vehicle control at 1 µM at MGL is 618%. This molecule also gave an IC50 in assay [1] of 6 nM.

`O=C(c1ccc2c(c1)CCN(Cc1ccc(C(F)(F)F)cc1)C2)N1CC(N2CCN(C(=O)c3nccs3)CC2)C1` [Cpd 880]: the 2-AG accumulation, % of vehicle control at 1 µM at MGL came to 945%. The same molecule registered an IC50 in assay [1] of under 5 nM.

Regarding `O=C(c1ccc(S(=O)(=O)c2cccc(Cl)c2)cc1)N1CC(N2CCN(C(=O)c3nccs3)CC2)C1` [Cpd 876], the 2-AG accumulation, % of vehicle control at 1 µM at MGL worked out at 363%. The IC50 in assay [1] was under 5 nM.

Take `O=C(c1ccc(-c2ccc(C(F)(F)F)s2)cc1)N1CCN(C2CN(C(=O)c3cscn3)C2)CC1` [Cpd 1136]: at MGL, the 2-AG accumulation, % of vehicle control at 1 µM came to 325%. Moreover, 25 nM corresponded to half-maximal inhibition in assay [1] (IC50).

`Cc1c(C(=O)N2CC(N3CCN(C(=O)c4nccs4)CC3)C2)nn(-c2ccc(Cl)cc2Cl)c1-c1ccc(Cl)cc1` [Cpd 1103]: on MGL, the 2-AG accumulation, % of vehicle control at 1 µM amounted to 698%. Besides, in assay [1], the IC50 was found to be 13 nM.

Consider `O=C(c1ccc(Cc2ccc(C(F)(F)F)cc2)cc1)N1CC(N2CCN(C(=O)c3cscn3)CC2)C1` [Cpd 999], for which, on MGL, the 2-AG accumulation, % of vehicle control at 1 µM is 458%. The same molecule displayed an IC50 in assay [1] of 8 nM.

`O=C(c1ccccc1)N1CCN(C2CN(C(=O)c3ccc(Oc4cc(C(F)(F)F)ccn4)cc3)C2)CC1` [Cpd 518]: at MGL, the 2-AG accumulation, % of vehicle control at 1 µM came to 86%. This molecule had an IC50 in assay [1] of 1610 nM.

As for `O=C(c1ccc(-c2ccc(Cl)c(C(F)(F)F)c2)cc1)N1CC(N2CCN(C(=O)c3nccs3)CC2)C1` [Cpd 212, 1-(1-{[4′-Chloro-3′-(trifluoromethyl)biphenyl-4-yl]carbonyl}azetidin-3-yl)-4-(1,3-thiazol-2-ylcarbonyl)piperazine], the 2-AG accumulation, % of vehicle control at 10 µM at MGL worked out at 831%. Also, in assay [1], the IC50 was under 5 nM.

On to `O=C(c1ccccc1)N1CCN(C2CN(C(=O)c3ccc(-c4ccccc4OC(F)(F)F)cc3)C2)CC1` [Cpd 196, 1-(Phenylcarbonyl)-4-(1-{[2′-(trifluoromethoxy)biphenyl-4-yl]carbonyl}azetidin-3-yl)piperazine], for which, at MGL, the 2-AG accumulation, % of vehicle control at 10 µM was 516%. The molecule also returned an IC50 in assay [1] of 216 nM.

Turning to `Cn1cc(-c2ccccc2)c2ccc(C(=O)N3CC(N4CCN(C(=O)c5cscn5)CC4)C3)cc21` [Cpd 1155], the 2-AG accumulation, % of vehicle control at 1 µM on MGL came to 617%. The IC50 in assay [1] was 41 nM.

For the molecule `O=C(c1ccc(-c2ccc(F)c(Cl)c2)cc1)N1CC(N2CCN(C(=O)c3cscn3)CC2)C1` [Cpd 227, 1-{1-[(3′-Chloro-4′-fluorobiphenyl-4-yl)carbonyl]azetidin-3-yl}-4-(1,3-thiazol-4-ylcarbonyl)piperazine], the 2-AG accumulation, % of vehicle control at 10 µM on MGL was determined as 938%. The IC50 in assay [1] is 7 nM.

For the molecule `O=C(c1ccccc1)N1CCN(C2CN(C(=O)c3ccc(OCc4cccc(Cl)c4Cl)cc3)C2)CC1` [Cpd 381, 1-[1-({4-[(2,3-Dichlorobenzyl)oxy]phenyl}carbonyl)azetidin-3-yl]-4-(phenylcarbonyl)piperazine], the 2-AG accumulation, % of vehicle control at 10 µM on MGL turned out to be 520%. In assay [1], this molecule showed an IC50 of under 5 nM.

Consider `O=C(c1ccc(-c2ccc(Cl)c(Cl)c2)cc1)N1CC(N2CCN(C(=O)c3cscn3)CC2)C1` [Cpd 228, 1-{1-[(3′,4′-Dichlorobiphenyl-4-yl)carbonyl]azetidin-3-yl}-4-(1,3-thiazol-4-ylcarbonyl)piperazine], for which the 2-AG accumulation, % of vehicle control at 10 µM at MGL was found to be 710%. Besides, the IC50 in assay [1] was under 5 nM.

On to `O=C(c1nccs1)N1CC(N2CCN(C(=O)c3ccc(-c4ccccc4)cc3)C(c3ccccc3)C2)C1` (stereo not shown) [Cpd 43, 1-(Biphenyl-4-ylcarbonyl)-2-phenyl-4-[1-(1,3-thiazol-2-ylcarbonyl)azetidin-3-yl]piperazine], for which the 2-AG accumulation, % of vehicle control at 10 µM on MGL came out at 215%. Besides, the IC50 in assay [1] turned out to be 1260 nM.

With `Cn1cc(-c2ccc(C(F)(F)F)cc2)c2ccc(C(=O)N3CC(N4CCN(C(=O)c5cscn5)CC4)C3)cc21` [Cpd 1148], the 2-AG accumulation, % of vehicle control at 1 µM on MGL turned out to be 344%. The same molecule returned a concentration for half-maximal inhibition (IC50) in assay [1] of 33 nM.

As for `O=C(c1ccc2c(c1)CCCN2C(=O)C1CCC1)N1CC(N2CCN(C(=O)c3nccs3)CC2)C1` [Cpd 364], at MGL, the 2-AG accumulation, % of vehicle control at 1 µM was 581%. The molecule further had an IC50 in assay [1] of 210 nM.

As for `O=C(c1ccc(Oc2cccc(C(F)(F)F)c2)nc1)N1CC(N2CCN(C(=O)c3cscn3)CC2)C1` [Cpd 689], the 2-AG accumulation, % of vehicle control at 1 µM on MGL is 136%. Half-maximal inhibition in assay [1] (IC50) required 45 nM.

For the molecule `O=C(c1ccc2c(-c3ccccc3)ncnc2c1)N1CC(N2CCN(C(=O)c3nccs3)CC2)C1` [Cpd 1130], the 2-AG accumulation, % of vehicle control at 1 µM on MGL was 553%. In addition, the IC50 in assay [1] is 22 nM.

With `CS(=O)(=O)Nc1cccc(-c2ccc(C(=O)N3CC(N4CCN(C(=O)c5nccs5)CC4)C3)cc2)c1` [Cpd 219, N-[4′-({3-[4-(1,3-Thiazol-2-ylcarbonyl)piperazin-1-yl]azetidin-1-yl}carbonyl)biphenyl-3-yl]methanesulfonamide], the 2-AG accumulation, % of vehicle control at 10 µM at MGL is 851%. This molecule also showed an IC50 in assay [1] of 32 nM.

For `O=C(c1cccc(C(F)(F)F)c1)N1CCc2cc(C(=O)N3CC(N4CCN(C(=O)c5nccs5)CC4)C3)ccc2C1` [Cpd 679, 6-({3-[4-(1,3-Thiazol-2-ylcarbonyl)piperazin-1-yl]azetidin-1-yl}carbonyl)-2-{[3-(trifluoromethyl)phenyl]carbonyl}-1,2,3,4-tetrahydroisoquinoline], the 2-AG accumulation, % of vehicle control at 1 µM at MGL came out at 751%. Moreover, in assay [1], the IC50 was determined as 24 nM.

As for `O=C(c1ccc(-c2ccc(Cl)c(Cl)c2)cc1)N1CC(N2CCN(C(=O)c3nccs3)CC2)C1` [Cpd 175, 1-{1-[(3′,4′-Dichlorobiphenyl-4-yl)carbonyl]azetidin-3-yl}-4-(1,3-thiazol-2-ylcarbonyl)piperazine], the 2-AG accumulation, % of vehicle control at 0.1 µM at MGL (compound 0.1 μM, read-out: Rat Brain 2AG % VehCntrl (%) @ 0.1 μM) worked out at 330%. The 2-AG accumulation, % of vehicle control at 1 µM at MGL is 706%. This molecule also returned an IC50 in assay [1] of under 5 nM.

Consider `O=C(c1ccc(Cc2cccc(C(F)(F)F)c2)cc1)N1CC(N2CCN(C(=O)c3cscn3)CC2)C1` [Cpd 998], for which the 2-AG accumulation, % of vehicle control at 1 µM at MGL is 639%. In assay [1], this molecule had an IC50 of under 5 nM.

`O=C(c1ccc2c(c1)Sc1ccccc1O2)N1CC(N2CCN(C(=O)c3nccs3)CC2)C1` [Cpd 886]: the 2-AG accumulation, % of vehicle control at 1 µM at MGL worked out at 823%. Moreover, the IC50 in assay [1] was under 5 nM.

Take `Cn1cc(-c2ccc(C(F)(F)F)cc2)c2ccc(C(=O)N3CC(N4CCN(C(=O)c5nccs5)CC4)C3)cc21` [Cpd 1347]: the 2-AG accumulation, % of vehicle control at 1 µM on MGL is 741%. Besides, the IC50 in assay [1] is under 5 nM.

Consider `Cc1nc(-c2ccccc2)sc1C(=O)N1CC(N2CCN(C(=O)c3nccs3)CC2)C1` [Cpd 133, 1-{1-[(4-Methyl-2-phenyl-1,3-thiazol-5-yl)-carbonyl]azetidin-3-3yl}-4-(1,3-thiazol-2-ylcarbonyl)piperazine], for which, at MGL, the 2-AG accumulation, % of vehicle control at 10 µM came to 623%. Also, half-maximal inhibition in assay [1] (IC50) required 67.3 nM.

In the case of `O=C(c1ccccc1)N1CCN(C2CN(C(=O)c3ccc(-c4ccccc4C(F)(F)F)cc3)C2)CC1` [Cpd 72, 1-(Phenylcarbonyl)-4-(1-{[2′-(trifluoromethyl)biphenyl-4-yl]carbonyl}azetidin-3-yl)piperazine], the 2-AG accumulation, % of vehicle control at 10 µM at MGL came out at 334%. Moreover, the half-maximal inhibitory concentration (IC50) in assay [1] was 326 nM.

Consider `O=C(c1cc(-c2ccccc2)n(-c2ccccc2)n1)N1CC(N2CCN(C(=O)c3nccs3)CC2)C1` [Cpd 1164], for which the 2-AG accumulation, % of vehicle control at 1 µM at MGL amounted to 250%. Besides, half-maximal inhibition in assay [1] (IC50) was put at 48 nM.

As to `O=C(c1cccc(-c2ccccc2C(F)(F)F)c1)N1CC(N2CCN(C(=O)c3nccs3)CC2)C1` [Cpd 148, 1-(1,3-Thiazol-2-ylcarbonyl)-4-(1-{[2′-(trifluoromethyl)biphenyl-3-yl]carbonyl}azetidin-3-yl)piperazine], the 2-AG accumulation, % of vehicle control at 10 µM on MGL came out at 744%. The IC50 in assay [1] is under 5 nM.

On to `O=C(c1ccc2c(-c3ccc(C(F)(F)F)cc3)ncnc2c1)N1CC(N2CCN(C(=O)c3nccs3)CC2)C1` [Cpd 1086], for which, on MGL, the 2-AG accumulation, % of vehicle control at 1 µM came out at 488%. The molecule further returned an IC50 in assay [1] of 9 nM.

Regarding `O=C(c1ccc(N2CCCCCC2)cc1)N1CC(N2CCN(C(=O)c3nccs3)CC2)C1` [Cpd 888], the 2-AG accumulation, % of vehicle control at 1 µM on MGL was 940%. The IC50 in assay [1] is under 5 nM.

For the molecule `CS(=O)(=O)c1cccc(-c2ccc(C(=O)N3CC(N4CCN(C(=O)c5nccs5)CC4)C3)cc2)c1` [Cpd 208, 1-(1-{[3′-(Methylsulfonyl)biphenyl-4-yl]carbonyl}azetidin-3-yl)-4-(1,3-thiazol-2-ylcarbonyl)piperazine], at MGL, the 2-AG accumulation, % of vehicle control at 1 µM worked out at 480% and the 2-AG accumulation, % of vehicle control at 10 µM was 324%. In assay [1], this molecule gave an IC50 of 92 nM.
